The values that follow are results of earlier work, collected in patent publication US6773669B1, “Flow electroporation chamber and method” (Maxcyte, Inc., priority 1995, dated 2004).

The conditions of series [1]: experimental animals; DPG or precursors of DPG; transient.
In series [2] the target is T1, hemoglobin (Homo sapiens, UniProt P68871). The note with it: higher than DPG; Benesch et al. 1977.
The target in series [3] is T1, hemoglobin. The settings on record: pH 7.4, 37 degrees C; J. Biol. Chem. 1975.

T1 sequence (P68871 2-147 limits assumed): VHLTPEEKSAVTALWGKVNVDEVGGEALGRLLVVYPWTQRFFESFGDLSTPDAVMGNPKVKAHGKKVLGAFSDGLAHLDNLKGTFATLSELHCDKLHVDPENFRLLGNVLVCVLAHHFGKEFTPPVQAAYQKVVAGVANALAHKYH
T1 sequence (P69905 2-142 partner limits assumed): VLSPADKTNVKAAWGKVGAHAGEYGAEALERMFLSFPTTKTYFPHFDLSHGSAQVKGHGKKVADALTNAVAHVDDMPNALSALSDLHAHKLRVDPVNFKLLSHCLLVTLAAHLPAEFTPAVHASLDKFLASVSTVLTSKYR

Turning to `O=C(O)C(COP(=O)(O)O)OP(=O)(O)O` (stereo not drawn) [DPG, 2,3-diphosphoglycerate], in series [1], the “duration of elevation of oxygen deposition” value is 6 to 12 h. For the compound `O=P(O)(O)O[C@H]1[C@H](OP(=O)(O)O)[C@@H](OP(=O)(O)O)[C@H](OP(=O)(O)O)[C@@H](OP(=O)(O)O)[C@H]1OP(=O)(O)O` [IHP, inositol hexaphosphate], at hemoglobin [2], the “affinity to hemoglobin relative to DPG” value is listed as 1000 fold. The P50 of hemoglobin on hemoglobin [3] is listed as at most 96.4 mm Hg.
